# Experimental data taken from patent US20080234385A1, “Method For Inhibiting Tnf-Alpha” (CARITAS ST. ELIZABETH'S MEDICAL CENTER, priority 2005, published 2008).
# “Also recorded” adds a separate entry of the source.
# Tested on: LPS-stimulated TNF-α production
# Assay: LPS-stimulated TNF-α production by THP-1-derived monocytes (ELISA)
# Assay type: cell-based, human
# Conditions: differentiated THP-1 cells, endotoxin 10 ng/ml, 24 hours; for effect on LPS-stimulated TNF-α production/synthesis (in words): rising concentrations
# Method: The human promonocytic THP-1 cell line (American Type Culture Collection, Manassas, Va.) was maintained in suspension culture at 0.25×10^6 cells/ml in RPMI-1640 medium supplemented with 2 mM L-glutamine, 10% fetal bovine serum and 0.05 mM 2-mercaptoethanol in a humidified atmosphere of 5% CO2 in air at 37° C. Differentiation to monocytes (0.25×10^6 cells/ml) was induced by incubating cells with trans-retinoic acid (1 μM), 1.25 dihydroxy cholecalciferol (0.1 μM) and interferon-γ (0.01 mg/l) (Sigma, St. Louis, Mo.). After 3 days, cells were detached using trypsin-EDTA, washed in PBS, and 1×10^6 cells were used for each experimental condition.
# Differentiated THP-1 cells were co-incubated with 10 ng/ml of purified Escherichia coli endotoxin (serotype O55: B5, Sigma Chemical Co.) and rising concentrations (0-400 μM) of either melatonin, N-acetyldopamine (NAD) or N-methyldopamine (NMD) or 3-hydroxy-4-methoxy-dopamine (HMP) (Sigma) in RPMI-1640 cell culture medium at 37° C. in a humidified atmosphere supplemented with 5% CO2. After 24-hour incubation, cell supematants were harvested, and TNF-α was measured by a sandwich enzyme linked immunosorbent assay (ELISA), according to the manufacturer's instructions (Quantikine®, R & D systems, Minneapolis, Minn., USA). The lower limit of detection for TNF-α was 1.6 pg/ml. The average intra-assay coefficient of variation for TNF-α was 5%.
Compound,effect on LPS-stimulated TNF-α production/synthesis (in words),"potency in blocking TNF-α production compared with NMD, HMP and melatonin (low-dose (1-20 μM, FIG. 1))"
"CC(=O)NCCc1ccc(O)c(O)c1 [NAD, N-acetyldopamine]","marked decrease in LPS-stimulated TNF-α production, which was dose dependent; also recorded: suppress LPS-stimulated TNF-α synthesis by monocytic cells in a dose-dependent manner",more potent in blocking TNF-α production
"CC(=O)NCCc1c[nH]c2ccc(O)cc12 [NAS, N-acetyl-serotonin, reference compound]","marked decrease in LPS-stimulated TNF-α production, which was dose dependent",–
"CNCCc1ccc(O)c(O)c1 [NMD, N-methyldopamine]",suppress LPS-stimulated TNF-α synthesis by monocytic cells in a dose-dependent manner,–
"COc1ccc2[nH]cc(CCNC(C)=O)c2c1 [melatonin, reference compound]","marked decrease in LPS-stimulated TNF-α production, which was dose dependent",–
